Experimental data reported in patent US20220073496A1, “NOVEL QUINOLINE DERIVATIVE INHIBITOR” (Nanjing Transthera Biosciences Co., Ltd., priority 2018, published 2022).

Assays:
H1299 cell pMer = molecular target: T1, H1299 cell pMer (Homo sapiens, UniProt Q12866); experiment: Inhibitory activity on the cell pMer (Western Blot); type: cell-based; details: H1299 cells, compound 0.35, 1.1, 3.3, 10 nM, Human MerMab 200 ng/mL
T1 construct: The H1299 cells were inoculated in a 6-well plate; endogenous in cells; host or cells: H1299
T1 sequence (Q12866 21-999): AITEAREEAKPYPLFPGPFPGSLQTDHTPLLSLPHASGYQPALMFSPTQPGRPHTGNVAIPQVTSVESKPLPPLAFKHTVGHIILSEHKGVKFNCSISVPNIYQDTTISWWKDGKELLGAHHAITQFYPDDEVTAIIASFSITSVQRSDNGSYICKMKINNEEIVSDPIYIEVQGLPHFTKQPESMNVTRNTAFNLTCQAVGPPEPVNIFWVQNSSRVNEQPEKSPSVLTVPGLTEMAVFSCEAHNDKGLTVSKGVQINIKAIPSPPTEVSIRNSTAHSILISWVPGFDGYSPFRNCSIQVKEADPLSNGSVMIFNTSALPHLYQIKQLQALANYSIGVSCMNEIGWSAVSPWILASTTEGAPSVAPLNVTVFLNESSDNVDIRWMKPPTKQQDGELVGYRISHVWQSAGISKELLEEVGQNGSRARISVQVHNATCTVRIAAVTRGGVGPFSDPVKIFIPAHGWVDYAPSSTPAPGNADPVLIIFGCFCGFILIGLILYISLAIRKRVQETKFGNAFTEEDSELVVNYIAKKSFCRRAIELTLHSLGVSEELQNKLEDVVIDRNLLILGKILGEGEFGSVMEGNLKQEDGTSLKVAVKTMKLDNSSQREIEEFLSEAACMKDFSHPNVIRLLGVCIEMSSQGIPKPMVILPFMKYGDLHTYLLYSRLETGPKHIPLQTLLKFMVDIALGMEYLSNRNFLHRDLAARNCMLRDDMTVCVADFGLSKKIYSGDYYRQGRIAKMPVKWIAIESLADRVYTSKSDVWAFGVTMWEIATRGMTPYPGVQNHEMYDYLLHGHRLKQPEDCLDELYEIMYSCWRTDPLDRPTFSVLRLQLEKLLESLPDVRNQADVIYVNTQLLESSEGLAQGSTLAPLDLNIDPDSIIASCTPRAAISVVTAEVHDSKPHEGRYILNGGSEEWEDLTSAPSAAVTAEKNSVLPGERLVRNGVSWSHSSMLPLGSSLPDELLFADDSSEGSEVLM
Procedure: Assay 6: Test for Inhibitory Activities of the Compounds of the Present Invention on the Cell pMer
H1299 is a non-small cell lung cancer cell.
Test substances: the compounds of the present invention, wherein the structures thereof were as described above.
Test equipment: protein electrophoresis apparatus (manufactured by Bio Rad), transfer unit (manufactured by Bio Rad), exposure unit (manufactured by Tanon), CO2 cell incubator (manufactured by Thermo).
The H1299 cells were inoculated in a 6-well plate (containing 10% FBS 1640 medium, 5×10^5 cells per well), and adherent cells were cultivated at 37° C. in a 5% CO2 condition for 18 hours. The cells were starved overnight. Different concentrations of compounds were added. The final compound concentrations were 0.35, 1.1, 3.3 and 10 nM, and the final DMSO content was 1‰. The negative control wells contained the medium containing 1‰ DMSO. After incubating at 37° C. in a 5% CO2 condition for 60 minutes, Human MerMab (R&D, final concentration 200 ng/mL) was added to each well. After further incubating for 60 minutes, the cell total protein was extracted for Western Blot and the IC50 values were calculated using GraphPad 5.0 software. The inhibitory activity of the compound on the cell pMer was examined.

[1] = Stability in liver microsome of mice; type: in vitro ADME; details: Mouse liver microsome 0.5 mg protein/mL, compound 1 μM, 37° C.; for half-life at 1 μM / microsomal CLint at 1 μM: liver microsomes
Procedure: Assay 1: Stability assessment of the compounds of the present invention in liver microsome of mice and dogs
Test substances: the compounds of the present invention, wherein the structures and preparations thereof were as described above.
The composition of the incubation system:
Preparation of Test Substances:
An appropriate amount of the compound was accurately weighed and dissolved in DMSO to prepare a 5.0 mM stock solution. The 5.0 mM stock solution was diluted to 1.0 mM with DMSO, and finally diluted with water to a 10 μM test substance working solution for use (the DMSO content in the reaction system was 0.1%).
(1) The liver microsome (20 mg protein/mL) was taken out from the −80° C. refrigerator, pre-incubated at 37° C. with a water-bathing constant temperature vibrator for 3 minutes, and melted for use.
(2) A mixed solution of the incubation system (excluding compounds and β-NADPH) according to the above “composition of the incubation system” for the assay was prepared, and pre-incubated at 37° C. with a water-bathing constant temperature vibrator for 2 minutes.
(3) Control group (excluding β-NADPH): 30 μL of water and 30 μL of compound working solution (10 μM) were added to 240 μL of the mixed solution of the incubation system of step (2), and vortexed for 30 seconds to mix well. The total reaction volume was 300 μL. A duplicate sample was prepared. The sample was incubated at 37° C. with a water-bathing constant temperature vibrator. The timekeeping began and the sampling time points were set at 0 minute and 60 minutes.
(4) Sample group: 70 μL of β-NADPH solution (10 mM) and 70 μL of compound working solution (10 μM) were added to 560 μL of the mixed solution of step (2). The total reaction volume was 700 μL. The resulting mixture was vortexed for 30 seconds to mix well. A duplicate sample was prepared. The sample was incubated at 37° C. with a water-bathing constant temperature vibrator. The timekeeping began and the sampling time points were set at 0 minute, 5 minutes, 10 minutes, 20 minutes, 30 minutes, and 60 minutes after timekeeping.
(5) After vortexing for 3 minutes, the sample was centrifuged at 4000 rpm for 10 minutes.
(6) 50 μL of the supernatant was taken and 150 μL of water was added. The resulting mixture was vortexed to mix well, and analyzed by LC/MS/MS.
The half-life (t1/2) and clearance rate (Cl) were calculated using the following first-order kinetic formula:
Vd=1/protein content in liver microsome
Note: k was the slope of the logarithm of the remaining amount of the compound versus time, and Vd was the apparent distribution volume.

For `COc1cc2nccc(Oc3ccc(NC(=O)c4nn(C5CC5)cc(-c5ccc(C)cc5)c4=O)nc3)c2cc1OC` [Compound 46, 1-cyclopropyl-N-(5-((6,7-dimethoxyquinolin-4-yl)oxy)pyridin-2-yl)-4-oxo-5-p-tolyl-1,4-dihydropyridazine-3-carboxamide], the IC50 (H1299 cell pMer) was less than 0.37 nM and the t1/2 [1] was “→∞”.
`COc1cc2nccc(Oc3ccc(NC(=O)c4nn(C(C)C)cc(-c5ccc(F)cc5)c4=O)nc3)c2cc1OC` [Compound 15, N-(5-((6,7-dimethoxyquinolin-4-yl)oxy)pyridin-2-yl)-5-(4-fluorophenyl)-1-isopropyl-4-oxo-1,4-dihydropyridazine-3-carboxamide] showed an IC50 (H1299 cell pMer) of less than 0.35 nM, a half-life at 1 μM [1] of 6.42 h and a microsomal CLint at 1 μM [1] of 3.6 µL/min/mg.
`COc1cc2nccc(Oc3ncc(NC(=O)c4nn(C5CC5)cc(-c5ccc(F)cc5)c4=O)cn3)c2cc1OC` [Compound 37, 1-cyclopropyl-N-(2-((6,7-dimethoxyquinolin-4-yl)oxy)pyrimidine-5-yl)-5-para-fluorophenyl-4-oxo-1,4-dihydropyridazine-3-carboxamide] showed an IC50 (H1299 cell pMer) of 1.1 to 3.3 nM, a half-life at 1 μM [1] of 8.88 h and a microsomal CLint at 1 μM [1] of 2.6 µL/min/mg.
For `COc1cc2nccc(Oc3cnc(NC(=O)c4nn(C(C)C)cc(-c5ccc(F)cc5)c4=O)nc3)c2cc1OC` [Compound 16, N-(5-((6,7-dimethoxyquinolin-4-yl)oxy)pyrimidine-2-yl)-5-(4-fluorophenyl)-1-isopropyl-4-oxo-1,4-dihydropyridazine-3-carboxamide], the IC50 (H1299 cell pMer) was less than 1.1 nM, the half-life at 1 μM [1] was 1.63 h and the microsomal CLint at 1 μM [1] was 14.2 µL/min/mg.
`COc1cc2nccc(Oc3ccc(NC(=O)c4nn(C5CC5)cc(-c5ccc(F)cc5)c4=O)nc3)c2cc1OC` [Compound 31] gave an IC50 (H1299 cell pMer) of less than 0.35 nM, a half-life at 1 μM [1] of 14.4 h and a microsomal CLint at 1 μM [1] of 1.6 µL/min/mg.
For `COc1cc2nccc(Oc3ccc(NC(=O)c4cn(C5CC5)nc(-c5ccc(F)cc5)c4=O)nc3)c2cc1OC` [Compound 42, 2-cyclopropyl-N-(5--((6,7-dimethoxyquinolin-4-yl)oxy)pyridin-2-yl)-6-(4-fluorophenyl)-5-oxo-2,5-dihydropyridazine-4-carboxamide], the IC50 (H1299 cell pMer) was less than 1.1 nM and the t1/2 [1] was “→∞”.
For `COc1cc2nccc(Oc3cnc(NC(=O)c4cn(C5CC5)cc(-c5ccc(F)cc5)c4=O)nc3)c2cc1OC` [Compound 32, 1-cyclopropyl-N-(5-((6,7-dimethoxyquinolin-4-yl)oxy)pyrimidine-2-yl)-5-(4-fluorophenyl)-4-oxo-1,4-dihydropyridin-3-carboxamide], the IC50 (H1299 cell pMer) was less than 1.1 nM, the half-life at 1 μM [1] was 4.13 h and the microsomal CLint at 1 μM [1] was 5.6 µL/min/mg.
For `COc1cc2nccc(Oc3cnc(NC(=O)c4cn(C(C)C)nc(-c5ccc(F)cc5)c4=O)nc3)c2cc1OC` [Compound 39, N-(5-((6,7-dimethoxyquinolin-4-yl)oxy)pyrimidine-2-yl)-6-(4-fluorophenyl)-2-isopropyl-5-oxo-2,5-dihydropyridazine-4-carboxamide], the IC50 (H1299 cell pMer) was 1.1 nM, the half-life at 1 μM [1] was 57.8 h and the microsomal CLint at 1 μM [1] was 4 µL/min/mg.
Molecule `COc1cc2nccc(Oc3ccc(NC(=O)c4cn(C(C)C)cc(-c5ccc(F)cc5)c4=O)nc3)c2cc1OC` [Compound 14, N-(5-((6,7-dimethoxyquinolin-4-yl)oxy)pyridin-2-yl)-5-(4-fluorophenyl)-1-isopropyl-4-oxo-1,4-dihydropyridin-3-carboxamide] has an IC50 (H1299 cell pMer) of 0.35 nM, a half-life at 1 μM [1] of 3.12 h and a microsomal CLint at 1 μM [1] of 7.4 µL/min/mg.
With `COc1cc2nccc(Oc3ccc(NC(=O)c4nn(C(C)C)cc(-c5ccc(F)cc5)c4=O)cn3)c2cc1OC` [Compound 29, N-(6-((6,7-dimethoxyquinolin-4-yl)oxy)pyridin-3-yl)-1-isopropyl-4-oxo-5-para-fluorophenyl-1,4-dihydropyridazine-3-carboxamide] the IC50 (H1299 cell pMer) was less than 1.1 nM, the half-life at 1 μM [1] was 3.22 h and the microsomal CLint at 1 μM [1] was 7.2 µL/min/mg.
In the case of `COc1cc2nccc(Oc3cnc(NC(=O)c4nn(C5CC5)cc(-c5ccc(F)cc5)c4=O)nc3)c2cc1OC` [Compound 33], the IC50 (H1299 cell pMer) is reported as less than 1.1 nM, the half-life at 1 μM [1] is reported as 2.75 h and the microsomal CLint at 1 μM [1] is reported as 8.4 µL/min/mg.
Molecule `COc1cc2nccc(Oc3ccc(NC(=O)c4cn(C(C)C)nc(-c5ccc(F)cc5)c4=O)nc3)c2cc1OC` [Compound 41, N-(5-((6,7-dimethoxyquinolin-4-yl)oxy)pyridin-2-yl)-6-(4-fluorophenyl)-2-isopropyl-5-oxo-2,5-dihydropyridazine-4-carboxamide] has an IC50 (H1299 cell pMer) of less than 3.3 nM.
`COc1cc2nccc(Oc3ccc(NC(=O)c4cn(C5CC5)cc(-c5ccc(F)cc5)c4=O)nc3)c2cc1OC` [Compound 30, N-(5-((6,7-dimethoxyquinolin-4-yl)oxy)pyridin-2-yl)-1-cyclopropyl-4-oxo-5-para-fluorophenyl-1,4-hydropyridin-3-carboxamide] showed an IC50 (H1299 cell pMer) of 1.1 to 3.3 nM, a half-life at 1 μM [1] of 0.888 h and a microsomal CLint at 1 μM [1] of 26 µL/min/mg.
In the case of `COc1cc2nccc(Oc3ccc(NC(=O)c4cn(C(C)C)cc(-c5ccc(C)cc5)c4=O)nc3)c2cc1OC` [Compound 1, N-(5-((6,7-dimethoxyquinolin-4-yl)oxy)pyridin-2-yl)-1-isopropyl-4-oxo-5-p-tolyl-1,4-dihydropyridin-3-carboxamide], the IC50 (H1299 cell pMer) is reported as 1.1 to 3.3 nM, the half-life at 1 μM [1] is reported as 1.27 h and the microsomal CLint at 1 μM [1] is reported as 18.2 µL/min/mg.
`COc1cc2nccc(Oc3ncc(NC(=O)c4cn(C(C)C)nc(-c5ccc(F)cc5)c4=O)cn3)c2cc1OC` [Compound 40, N-(2-((6,7-dimethoxyquinolin-4-yl)oxy)pyrimidine-5-yl)-6-(4-fluorophenyl)-2-isopropyl-5-oxo-2,5-dihydropyridazine-4-carboxamide] gave a half-life at 1 μM [1] of 8.88 h and a microsomal CLint at 1 μM [1] of 2.6 µL/min/mg.
For `COc1cc2nccc(Oc3ccc(NC(=O)c4nn(C5CC5)cc(-c5ccc(F)cc5)c4=O)cn3)c2cc1OC` [Compound 36], the IC50 (H1299 cell pMer) was less than 0.35 nM, the half-life at 1 μM [1] was 5.02 h and the microsomal CLint at 1 μM [1] was 4.6 µL/min/mg.
